{
  "source": "patent US9968617B2",
  "about": "“Local topical administration formulations containing indoxacarb” (E.I. du Pont de Nemours and Company, priority 2006, dated 2018)",
  "key": {"[1]": {"system": "fleas (Ctenocephalides felis)", "assay": "Dose response study on canines against fleas, Indoxacarb spot-on (Example 1)", "type": "in vivo", "conditions": "for reduction of flea infestation: dogs", "description": "A non-blinded prospective longitudinal artificial infestation parasite efficacy pen study was conducted with a fully randomized design (ranking and blocking based on breed and pre-treatment flea count). There were 5 treatment groups of 6 dogs each, and an untreated control group.\nThirty-three (33) adult dogs (Labrador Retrievers and Jack Russell Terriers) were inducted, clinically examined, weighed, identified and allocated to study pens on Day −7. Each dog was artificially infested with 100 fleas (Ctenocephalides felis) on Day −5 and again on Day −2. On Day −1 flea thumb counts were performed on all dogs and 30 dogs were selected for inclusion. These dogs were randomly allocated to 5 similar groups of 6 animals on the basis of breed and flea counts, and groups were allocated to study pens. On Day 0, Groups B, C, D and E were treated with a local topical administration formulation containing Indoxacarb (DPX-K128) dissolved in a mixture of Dimethyl Isosorbide (DMI) and Propylene Glycol Monomethyl Ether (90% Dimethyl Isosorbide (DMI) and 10% Propylene Glycol Monomethyl Ether by volume) to form a total concentration of 75, 100, 125 or 150 g/L of Indoxacarb (DPX-K128). The starting material to prepare the formulation was a mixture of DPX-K128-and DPX-KN127 (the R-isomer of Formula 1) and contained 70.43% Indoxacarb (DPX-K128). […] The formulation was administered via spot-on application (i.e. applying in liquid form to less than or equal to 10% of the surface area of the animal) to the dorsal midline at the rate of 0.1 mL/1 kg. Group A remained untreated as controls. Group B was dosed at the rate of 7.5 mg/kg; Group C at the rate of 10.0 mg/kg; Group D at the rate of 12.5 mg/kg; and Group E at the rate of 15.0 mg/kg.\nFlea thumb counts were performed at 24 hours. Flea comb counts were performed at 48 hours post-treatment and all dogs then treated with Capstar® oral tablets (Nitenpyram, Novartis Animal Health) to remove all fleas prior to the next infestation. Animals were re-infested with 100 adult fleas at 7, 14, 21 and 28 days post-treatment. At 24 hours after each infestation, flea comb counts were performed followed by Capstar treatment."}, "[2]": {"system": "fleas", "assay": "Effect of washing on persistency, flea comb count on dogs (Example 2)", "type": "in vivo, Ctenocephalides felis", "conditions": "for Group Average Count: Day 44; for Flea Count: individual dog, Day 44, infested with 100 fleas Day 43", "description": "At completion of the study described in Experiment 1 above, a further washing study was conducted using the six dogs in Group E for a further two weeks.\nDuring the two-week period, four of the six dogs from Group E were washed twice weekly in a non-insecticidal hydrobath, while the other two dogs from Group E were not washed and acted as controls. On Day 43 post-treatment, the 6 dogs were infested with 100 fleas and then had their ability to retain a flea infestation assessed on Day 44 by a flea comb count."}},
  "note": "Several values for one entry are separate records, joined by “and”; a condition that tells them apart may be missing. Identical values can stand only once.",
  "data": [
    {"smiles": "COC(=O)N(C(=O)N1CO[C@@]2(C(=O)OC)Cc3cc(Cl)ccc3C2=N1)c1ccc(OC(F)(F)F)cc1", "note": "[Indoxacarb, (S)-methyl 7-chloro-2,5-dihydro-2-[[(methoxycarbonyl)[4-(trifluoromethoxy)phenyl]amino]carbonyl]indeno[1,2-e][1,3,4]oxadiazine-4a(3H)-carboxylate]", "values": [
      {"measurement": "persistent efficacy, reduction", "setting": "[1]; all four groups (7.5-15.0 mg/kg), from the 48 hour count until 29 days post-treatment", "value": "≥ 99", "unit": "%"},
      {"measurement": "reduction of flea infestation", "setting": "[1]; spot-on 7.5 mg/kg (Group B), 24 hrs post-treatment", "value": 97.9, "unit": "%"},
      {"measurement": "reduction of flea infestation", "setting": "[1]; spot-on 7.5 mg/kg (Group B), 48 hrs post-treatment", "value": 99.4, "unit": "%"},
      {"measurement": "reduction of flea infestation", "setting": "[1]; spot-on 10.0 mg/kg (Group C), 24 hrs post-treatment", "value": 97.9, "unit": "%"},
      {"measurement": "reduction of flea infestation", "setting": "[1]; spot-on 10.0 mg/kg (Group C), 48 hrs post-treatment", "value": 100, "unit": "%"},
      {"measurement": "reduction of flea infestation", "setting": "[1]; spot-on 12.5 mg/kg (Group D), 24 hrs post-treatment", "value": 99.0, "unit": "%"},
      {"measurement": "reduction of flea infestation", "setting": "[1]; spot-on 12.5 mg/kg (Group D), 48 hrs post-treatment", "value": 100, "unit": "%"},
      {"measurement": "reduction of flea infestation", "setting": "[1]; spot-on 15.0 mg/kg (Group E), 24 hrs post-treatment", "value": 100, "unit": "%"},
      {"measurement": "reduction of flea infestation", "setting": "[1]; spot-on 15.0 mg/kg (Group E), 48 hrs post-treatment", "value": 99.4, "unit": "%"},
      {"measurement": "persistence after washing", "setting": "[2]; 44 days, after 4 shampoo hydrobath washes", "value": "excellent persistence"},
      {"measurement": "Group Average Count", "setting": "[2]; Treated Non-Wash", "value": 0},
      {"measurement": "Group Average Count", "setting": "[2]; Treated Wash", "value": 3},
      {"measurement": "Flea Count", "setting": "[2]; Treated Non-Wash (15.0 mg/kg)", "value": 0},
      {"measurement": "Flea Count", "setting": "[2]; Treated Wash (15.0 mg/kg, washed twice weekly for two weeks)", "value": "4 and 5 and 1 and 2"}
    ]}
  ]
}
